Measured values from patent publication US7553929B2, “Cell permeable peptides for inhibition of inflammatory reactions and methods of use” (Vanderbilt University, priority 1994, dated 2009).
Where two headings read alike, the source gives them in different places. Bridges are numbered along the chain shown (N, C = ends). Where no end group is shown, it is not given here.

Experiments:
NIH 3T3 cells [1] = assay: Cytotoxicity by staining with fluorescein diacetate/ethidium bromide; assay type: cell-based; details: 0 to 46 μM
Experimental: (§1) Bars represent the mean±S.E.M. of at least three independent experiments done in triplicate and calculated as multiplicity of counts in the tested sample over the control sample. SA peptide within the concentration range used (0 to 46 μM) was not cytotoxic as determined by staining with fluorescein diacetate/ethidium bromide. ^20

NIH 3T3 cells [2] = assay: [3H]thymidine incorporation (mitogenic response) of NIH 3T3 cells; assay type: cell-based; details: comparable concentration ranges
Experimental: A 26-residue hybrid peptide (referred to as SA, listed herein as SEQ ID NO:3) was designed and synthesized. […] Thus, the SA peptide differs from the SM peptide only in its 7-residue carboxyl terminal “cargo” region. A functional assay was performed in which SA peptide was able to induce a mitogenic response of NIH 3T3 cells measured by [^3H]thymidine incorporation in a manner similar to aFGF bearing, the same NLS. ^18
In this functional assay, confluent 3T3 cells grown initially in DMEM containing 10% FBS were transferred to a low serum medium (DMEM containing 0.5% FBS) for 2 days. The test peptides, either SA peptide, SAα pep-tide, ANL peptide, or SM peptide, or aFGF, were added to a fresh low serum medium at the indicated concentrations at 37° C. After 16 hours, [^3H]thymidine was added and 4 hours later, the cells were washed with PBS, treated with trichloroacetic acid, solubilized with 0.15 M NaOH, and the radioactivity was determined in a liquid scintillation counter.
as §1

NIH 3T3 cells [3] = assay: Indirect immunofluorescence assay of peptide import into NIH 3T3 cells; assay type: cell-based
From the text: A 26-residue peptide (referred to as SM, listed herein as SEQ ID NO:1) that contained the predicted signal sequence of Kaposi fibroblast growth factor ^16-17 (K-FGF) was chemically synthesized. An indirect immunofluorescence assay using antibody against epitope tag-containing SM peptide was employed to follow translocation of the SM peptide to the intracellular compartments of NIH 3T3 cells. A polyclonal anti-SM peptide antibody against the SM peptide-keyhole limpet haemocyanin conjugate (Pierce) was raised in rabbits and reacted with SM peptide in ELISA (titer>1:30,000). The intracellular SM peptide was detected by an indirect imrnmunofluorescence assay using affinity-purified anti-SM peptide IgG and rhodamine-labeled anti-rabbit antibody (Kirkegaard & Perry). Briefly, confluent NIH 373 cells on the chamber slides (Nunc) were treated with either 0.5 ml SM peptide solution (100 μg ml^−1) in DMEM containing 10% FBS or with 0.5 ml DMEM containing 10% FBS only for 30 minutes at 37° C. The cells were fixed with 3.5% paraformaldehyde solution in PBS followed by 0.25% Triton X-100 in PBS and then treated with 1:20 anti-SM peptide IgG in PBS containing 0.5% bovine serum albumin (BSA) for 1.5 h. The intracellular SM peptide-antibody complexes were visualized by subsequent incubation with a rhodamine-labeled anti-rabbit polyclonal antibody for 1 h. In control systems, anti-SM peptide antibody was preabsorbed with the SM peptide. Intracellular localization of the SAα peptide was detected by immunofluorescence assay using affinity-purified anti-SM peptide IgG as described above for SM peptide. […] A ten-step z-position sectional scanning of the SM peptide-treated cells by the confocal laser scanning microscopy (CLSM) affirmed that these deposits were intracellular. […] Likewise, cells not exposed to SM peptide or cells exposed to SM peptide followed by the secondary antibody alone were negative. If cells were fixed with paraformaldehyde before peptide treatment, the cellular import of SM peptide was prevented.
To determine the rate of SM peptide import across cell membranes, a kinetic experiment was carried out with the SM peptide-treated NIH 3T3 cells. NIH 3T3 cells were treated at 37° C. with 0.5 ml SM peptide at 100 μg mL^−1 in DMEM containing 10% FBS for 1, 5, 15, 30, 60 and 120 minutes. Intracellular SM peptide deposits were detected by indirect immunofluorescence assay as described above. […] The 30-minute time point was therefore selected to determine the optimal peptide concentrations for detectable import.
To determine the optimal peptide concentration, NIH 3T3 cells were treated for 30 minutes at 37° C. with 0.5 ml SM peptide solution in DMEM containing 10% FBS at the following concentrations: 0, 2, 10, 50, 100, and 150 μg ml^−1. Intracellular localization of the SM peptide was detected by indirect immunofluorescence assay as described above. […] The cellular import was concentration-dependent and reached a plateau between 50 μg/ml and 100 μg/ml.
Transport of the SM peptide across the cell membrane was temperature-dependent. […] Accordingly, cellular import of the SM peptide resumed when the incubation temperature shifted from 4° C. to 37° C.
The intracellular SA peptide could not be tracked by an immunofluorescence assay because it was not recognized by the available anti-SM peptide antibody. However, attaching two extra amino acid residues (Met-Pro) to the carboxyl terminus of the SA peptide produced a modified SA peptide (referred to as SAα, listed herein as SEQ ID NO:4) that contained a 3-amino acid epitope tag, Leu-Met-Pro, recognized by anti-SM peptide antibody in ELISA. […] Like SA peptide, SAα peptide was mitogenic in the thymidine incorporation assay.

NIH 3T3 cells [4] = assay: Import of 125I-labeled peptide into NIH 3T3 cells (cell-associated radioactivity; ATP depletion, protease treatment); assay type: cell-based; details: for Counts in cells: 15 ng, 30 min; for Counts in cell lysates / Counts in supernatants: 5 min
From the text: Intracellular localization of the membrane-permeable peptide was also shown by treatment of cells with proteases following peptide import. For this experiment, 41-residue peptide (referred to as SEP and listed herein as SEQ ID NO:6) that contained the same hydrophobic sequence as SM peptide followed by the sequence of K-FGF(129-153) was designed and synthesized. The latter was present in KP peptide not containing hydrophobic sequence that served as the control for the membrane-permeable SKP peptide. […] The intracellular ^125I-SKP peptide was resistant to the action of proteases.
Both SKP and KP peptides were radiolabeled with ^125I by the lodogen method (Pierce). The specific activities of both peptides were similar (2.5×10^4 cpm/ng). NIH 3T3 cells were subcultured on a 60-mm dish and incubated at 37° C. for 3 days. The confluent monolayers (1.6×10^6 cells) on each dish were then washed twice with PBS and treated with 15 ng of ^125I-SKP or ^125I-KP peptide at 37° C., for the indicated time. The cells were washed eight times with PBS and twice with 2 M NaCl buffer (pH 7.5) until no radioactivity could be detected in the washings. The washed cells were lysed in lysis buffer (10 mM Tris-HCl, pH 7.0, 0.1 mM EDTA, 1 mM phenylmethylsulphony fluoride, 1 mM dithiothreitol, and 1% Triton X-100) and the radioactivity in the cell lysates was counted in a Packard auto-gamma counter. In some experiments, the washed cells were further treated with pronase (1 mg/ml) or trypsin (0.05%) solution in DMEM for 5 min at 37° C. The supernatants and cells were separated and their radioactivities were counted separately. For ATP depletion assay, cells were incubated with 5 μglml antimycin, 6.5 mM 2-deoxyglucose, and 10 mM glucono-δ-lactone in DMEM for 2 h at 37° C. before addition of ^125I-SKP peptide. The levels of ATP in ATP-depleted cells and normal cells were determined by ATP bioluminescent assay kit (Sigma).
For ATP depletion assay, confluent NIH 3T3 cells (1.6×10^6 cells) in each dish were treated with or without ATP depleting reagents (antimycin, 2deoxyglucose, and glucono-δ-lactone) for 2 h at 37° C. Cells were then treated with 15 ng of ^125I-SKP peptide for 30 min at 37° C. After complete removal of extracellular^125I-labeled peptides, the radioactivity in the cell lysates was counted. For the assay using proteases, cells were treated with ^125 I-SKP peptide and washed as described above. The ^125I-SKF peptide-associated cells were then treated with pronase (1 mg/ml), trypsin (0.05%), or diluent for 5 min at 37° C. The radio-activities in the cell lysates and supernatants were counted separately. Data in Table 1 represent the mean the mean ±SEM of triplicate determinations of a single experiment. The experiment was repeated three times with similar results.

[5] = tested on: baby hamster kidney-21 cells; assay: Indirect immunofluorescence assay of SM peptide import, baby hamster kidney-21 cells; assay type: cell-based
[6] = tested on: human umbilical vein endothelial cells; assay: Indirect immunofluorescence assay of SM peptide import, HUVEC; assay type: cell-based
[7] = tested on: rodent endothelial cell line (LE-II); assay: Indirect immunofluorescence assay of peptide import, LE-II cells; assay type: cell-based
NF-κB [8] = assay type: cell-based, murine; details: J774, LPS 10 ng/ml, peptide 31 μM (Example II)
rabbits = assay: Localized Shwartzman reaction (LPS-induced skin inflammatory reaction) in rabbits; assay type: in vivo, rabbit; details: intradermal application prior to the second LPS injection
NF-κB complex = details: for Inducible nuclear import of NF-κB, LPS / Inducible nuclear import of NF-κB, TNFα: LEII
NF-κB [9] = assay type: cell-based

## AAVALLPAVLLALLAPAAANYKKPKL [SA peptide]
NIH 3T3 cells [1]
  Cytotoxicity: not cytotoxic

## Asn-Tyr-Lys-Lys-Pro-Lys-Leu (NYKKPKL) (1..7 Note/label = a (“Nuclear localization sequence of aFGF”)) [ANL peptide, 7-residue peptide representing the NLS of aFGF, reference compound]
NIH 3T3 cells [2]
  Mitogenic activity in thymidine incorporation assay: Neither control peptide showed any significant mitogenic activity

## SAα peptide: SA peptide with two extra residues (Met-Pro) at the carboxyl terminus (AAVALLPAVLLALLAPAAANYKKPKLMP; 1..16 Note/label = a (“Signal peptide amino acid sequence of K-FGF”))
NIH 3T3 cells [3]; SAα-treated NIH 3T3 cells
  Intracellular peptide staining with anti-SM peptide antibody: punctate staining pattern
NIH 3T3 cells [2]
  Mitogenic activity in thymidine incorporation assay: mitogenic

## SKP peptide: 41-residue peptide: same hydrophobic sequence as SM peptide followed by K-FGF(129-153); tested 125I-radiolabeled (AAVALLPAVLLALLAPEILLPNNYNAYESYKYPGMFIALSK; also: 125I radiolabel, site not given here)
NIH 3T3 cells [4]; 15 ng 125I-peptide, 37° C.
  Radioactivity detected in peptide-treated cells: Substantial radioactivity was detected
NIH 3T3 cells [4]; ATP-depleted cells, 37° C.
  Counts in cells: 22,266 ± 3,602 cpm/1.6 × −10′ cells
NIH 3T3 cells [4]; no protease (diluent), 37° C.
  Counts in cell lysates: 21,323 ± 853
  Counts in supernatants: 2,966 ± 838
NIH 3T3 cells [4]; pronase 1 mg/ml, 37° C.
  Counts in cell lysates: 21,791 ± 1,953
  Counts in supernatants: 1,979 ± 75
NIH 3T3 cells [4]; pronase or trypsin
  Loss of cell-associated radioactivity after protease treatment: no significant loss of cell-associated radioactivity was observed
NIH 3T3 cells [4]; trypsin 0.05%, 37° C.
  Counts in supernatants: 655 ± 70
NIH 3T3 cells [4]; untreated (ATP-positive) cells, 37° C.
  Counts in cells: 20,189 ± 2,109 cpm/1.6 × −10′ cells

## SM peptide: 26-residue peptide: K-FGF signal sequence, spacer, epitope tag; mutated, loss-of-function NLS; cell-permeable control (AAVALLPAVLLALLAPAAADQNQLMP; 1..16 Note/label = a (“Signal peptide amino acid sequence of K-FGF”))
NIH 3T3 cells [3]; 100 μg/mL, 37° C.
  Time at which intracellular staining plateaued: about 30 minutes
  Time at which intracellular staining was first observed: ≤ 5 min
NIH 3T3 cells [3]; 100 μg/ml, 30 minutes, 4° C.
  Immunofluorescence staining at 4° C.: No immunofluorescence staining was observed
NIH 3T3 cells [3]; 100 μg/ml, 30 minutes, 22° C. or 37° C.
  Immunofluorescence staining at 22° C. or 37° C.: numerous punctate deposits
NIH 3T3 cells [3]; 100 μg/ml, 30 minutes, 37° C.
  Intracellular peptide deposits by indirect immunofluorescence: intracellular deposits were observed in almost all cells
NIH 3T3 cells [3]; 30 minutes, 37° C.
  Concentration giving detectable intracellular peptide: 2 µg/mL
  Concentration giving detectable intracellular peptide (molar): about 800 nM
NIH 3T3 cells [3]; cells fixed before treatment
  Cellular import in cells fixed with paraformaldehyde before peptide treatment: prevented
[5]
  Intracellular localization by indirect immunofluorescence: the same results as with NIH 3T3 cells
[6]
  Intracellular localization by indirect immunofluorescence: the same results as with NIH 3T3 cells
[7]
  Intracellular localization by indirect immunofluorescence: the same results as with NIH 3T3 cells
NIH 3T3 cells [2]
  Mitogenic activity in thymidine incorporation assay: Neither control peptide showed any significant mitogenic activity

## SN50 peptide: 26-residue peptide: K-FGF signal sequence (residues 1-16) and NLS of NF-kB p50 subunit (residues 17-26) (AAVALLPAVLLALLAPVNRKRNKLMP)
[7]
  Intracellular distribution compared to intracellular SM peptide: more nuclear staining pattern
NF-κB [8]
  Nuclear import of NF-κB induced by LPS: blocked
rabbits
  Localized skin inflammatory reaction (Evans' Blue area): greatly diminished area of blue discoloration
NF-κB complex; LPS 10 ng/ml (Example II)
  Inducible nuclear import of NF-κB, LPS: inhibited
NF-κB complex; LPS 10 ng/ml (Example III)
  Inducible nuclear import of NF-κB, LPS: inhibited
NF-κB complex; TNFα 20 U/ml (Example III)
  Inducible nuclear import of NF-κB, TNFα: inhibited
NF-κB complex; TNFα 100 U/ml (Example II)
  Inducible nuclear import of NF-κB, TNFα: inhibited

## cSN50 peptide: cyclic peptide designed by inserting two cysteines flanking the NLS motif of SN50 (AAVALALLPAVLLALLAPCYVQRKRQKLMPC; disulfide 19-31 (inferred))
NF-κB [9]
  SEB-induced NF-κB nuclear import: increasing inhibition of SEB-induced NF-κB nuclear import
NF-κB complex; cSN50 versus SN50
  Potency relative to the prototypical SN50 peptide (phosphoimager analysis): 3-10 times
